Earlier results on one compound are cited in US12551521B2, “Compositions including pine bark extract, berryfruit extract and a source of l-theanine and uses thereof” (AREPA IP LIMITED, priority 2017, dated 2026).

For the data set the following is noted: in vivo.

Consider `CCNC(=O)CC[C@H](N)C(=O)O` [L-theanine, γ-glutamylethylamide], for which the blood-brain barrier crossing entry is on record as “known to cross the blood-brain barrier”.
